Values after ≈ are worked out from the molar mass of the structure shown.
Key:
BCR-ABL1 M351T = target: T1, BCR-ABL1 M351T (Homo sapiens, UniProt P00519, M351T); assay: KinaseProfiler radiometric kinase assay, BCR-ABL1 M351T; assay type: biochemical; conditions: [ATP] = 10 μM; mean of n = 2
T1 construct: BCR (fusion partner, as the printed name BCR-ABL1 says)

Caco-2 cells = assay: Caco-2 permeability; conditions: Papp (b − a/a − b)
Protocol: Caco-2 Permeability (Independently Performed by Pharmaron Inc., Ningbo, CN)
To each well of the Transwell insert and reservoir were added 50 μL and 25 mL of cell culture medium, respectively. […] Following this, the Caco-2 plate was removed from the incubator and the monolayer washed twice with pre-warmed HBSS (10 mM HEPES, pH 7.4).
To determine the rate of drug transport in the apical to basolateral direction, 125 μL of the working solution of either test compounds or control compounds was added to the Transwell insert (apical compartment) and a 50 μL sample was immediately transported from the apical compartment to 200 μL of acetonitrile containing internal standard (100 nM alprazolam, 200 nM Caffeine and 100 nM tolbutamide) in a new 96-well plate as the initial donor sample (A-B). The sample was then vortexed at 1,000 rpm for 10 min. The receiver plate (basolateral compartment) wells were then filled with 235 μL of transport buffer. To determine the rate of drug transport in the basolateral to apical direction, 285 μL of the working solution of either test compounds or control compounds was added to the receiver plate wells (basolateral compartment) and a 50 μL sample was immediately transferred from the basolateral compartment to 200 μL of acetonitrile containing internal standard in a new 96-well plate as the initial donor sample (B-A). The sample was vortexed at 1,000 rpm for 10 min. The Transwell insert (apical compartment) was then filled with 75 μL of transport buffer and the apical to basolateral direction and the basolateral to apical direction were done at the same time. […] After incubation, 50 μL samples from donor sides (apical compartment for Ap→BI flux, and basolateral compartment for BI→Ap) and receiver sides (basolateral compartment for Ap→BI flux, and apical compartment for BI→Ap) were transferred to wells of a new 96-well plate, followed by the addition of 200 μL acetonitrile containing internal standard. All samples were vortexed for 10 min and then centrifuged at 3,220 g for 40 min. A 150 μL aliquot of the supernatant was then mixed with an appropriate volume of ultra-pure water prior to LC-MS/MS analysis.
To monitor for monolayer integrity, Lucifer yellow leakage was determined after the 2 h transport period. This began by preparing a stock solution of Lucifer yellow in DMSO which was diluted with HBSS (10 mM HEPES, pH 7.4.) to reach a final concentration of 100 μM. To each Transwell insert (apical compartment) was then added 100 μL of the Lucifer yellow solution, followed by filling the wells in the receiver plate (basolateral compartment) with 300 μL of HBSS (10 mM HEPES, pH 7.4).
The efflux ratio was determined using the following equation: […]

cSRC = cSRC (Homo sapiens, UniProt P12931); assay: KinaseProfiler radiometric kinase assay, cSRC wt; assay type: biochemical; conditions: [ATP] = 10 μM; mean of n = 2
mutant BCR-ABL1 = assay: KinaseProfiler radiometric kinase assay, mutant BCR-ABL1 kinases as a group; assay type: biochemical, human; conditions: for IC50: read-out: IC50 against (imatinib resistant / relevant) mutant BCR-ABL1 kinases, group of mutants
From the text: Biochemical Human RTK Kinase Enzymatic Radiometric Assay, KinaseProfiler (Independently Performed by Eurofins Cerep SA, FR)

Aqueous solubility = assay: Aqueous solubility
Protocol: Solubility Determinations (Independently Performed by Pharmaron Inc., Ninqbo, CN)
Test compounds and control compounds (progesterone or diclofenac) were initially prepared as 10 mM DMSO stock solutions. […] After such time, plugs and stir sticks were removed and the samples from the solubility sample plate were transferred into the filter plate. All the samples were then filtered and 5 μL of filtrate was taken and added along with 5 μL of DMSO and 490 μL of a 1:1 (v/v) mixture of H2O and acetonitrile containing internal standard (100 nM alprazolam, 200 nM Caffeine and 100 nM tolbutamide) to the plate yielding a final concentration of 3 μM. The samples were then analyzed by LC-MS and diluted according to the peak shape with ultrapure water.
Filtrate was analyzed and quantified against a standard of known concentration using LC coupled with MS peak identification and quantitation. Solubility values of test compounds and progesterone were calculated as follows and are presented as the mean of n=2 replicates: […]

[1] = Plasma protein binding by equilibrium dialysis, mouse plasma; assay type: in vitro ADME, mouse (CD-1); conditions: 360 min, 5 µM
Protocol: Plasma Protein Binding by Equilibrium Dialysis (Independently Performed by Pharmaron Inc., Ninqbo, CN)
Initially, 1 mM solutions of test compounds and the control compound (Ketoconzaole) were prepared in DMSO. After this, dialysis membranes were soaked in ultrapure water for 60 min to separate strips, followed by 20% aq. ethanol for 20 min, and finally in a dialysis buffer for 20 min. […] After this, 597 μL of blank plasma solution followed by 3 μL of the working solutions of either test compounds or control compound were added to a new plastic plate or separate plastic tube and the solutions were vortexed at 1,000 rpm for 2 min. Immediately after this, 50 μL of spiked plasma solution suspension was transferred to a 96-well plate to act as T=0 control. The remaining samples were treated in the same manner, whereby all remaining spiked plasma solutions were added to the incubator for the duration of the study.
Cells were then loaded with 120 μL of the plasma samples and dialyzed against an equal volume of dialysis buffer (PBS). […] The samples were analyzed by LC-MS/MS and 100 μL of distilled water was added to each sample prior to analysis.
Concentrations of test compounds and control compound in buffer and plasma solution chambers was determined and percentages of test compounds and control compound bound using the following equations (mean of n=2 replicates): […]

Chain of cSRC (P12931 whole entry): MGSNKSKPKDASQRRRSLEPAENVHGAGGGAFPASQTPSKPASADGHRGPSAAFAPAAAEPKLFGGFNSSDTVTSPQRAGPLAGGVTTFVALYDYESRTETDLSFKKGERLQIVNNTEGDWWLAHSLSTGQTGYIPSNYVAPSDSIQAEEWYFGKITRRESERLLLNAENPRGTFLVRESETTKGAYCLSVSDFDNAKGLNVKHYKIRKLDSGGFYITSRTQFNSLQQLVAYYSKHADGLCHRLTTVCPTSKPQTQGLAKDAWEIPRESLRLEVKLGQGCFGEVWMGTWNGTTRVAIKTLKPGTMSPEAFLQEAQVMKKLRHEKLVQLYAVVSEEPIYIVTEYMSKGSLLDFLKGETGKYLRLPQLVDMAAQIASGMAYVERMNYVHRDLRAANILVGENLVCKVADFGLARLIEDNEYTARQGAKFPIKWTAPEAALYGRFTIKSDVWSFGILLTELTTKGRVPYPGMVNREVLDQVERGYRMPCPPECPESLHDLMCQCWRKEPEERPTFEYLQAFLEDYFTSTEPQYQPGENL

| SMILES | IC50 (BCR-ABL1 M351T) | Efflux Ratio (Caco-2 cells) | IC50 (cSRC) | BCR-ABL1 kinase activity, in words (mutant BCR-ABL1) | IC50 (mutant BCR-ABL1) | solubility kinetic at 2 h (Aqueous solubility; phosphate buffer, pH 7.4, aqueous buffer) | % Unbound [1] | solubility, in words (Aqueous solubility) |
| --- | --- | --- | --- | --- | --- | --- | --- | --- |
| COc1cc(Nc2c(C#N)cnc3cc(OCCON4CCN(C)CC4)c(OC)cc23)c(F)cc1Cl [Compound 15, 4-((4-chloro-2-fluoro-5-methoxyphenyl)amino)-6-methoxy-7-(2-((4-methylpiperazin-1-yl)oxy)ethoxy)quinoline-3-carbonitrile] | 2 nM | 6.4 | 2 nM | single-digit nanomolar biochemical activity | < 1 nM | 43 µM (≈ 22.2 µg/mL) |  |  |
| COc1cc2c(Nc3cccc(OC)c3Cl)c(C#N)cnc2cc1OCCON1CCN(C)CC1 [Compound 17, 4-((2-Chloro-3-methoxyphenyl)amino)-6-methoxy-7-(2-((4-methylpiperazin-1-yl)oxy)ethoxy)quinoline-3-carbonitrile] | 31 nM | 3.58 | 14 nM |  | ≥ 15 nM |  | 11.93% | high aqueous solubility at pH 7.4 |
| COc1cc(Cl)ccc1Nc1c(C#N)cnc2cc(OCCON3CCN(C)CC3)c(OC)cc12 [Compound 20, 4-((4-Chloro-2-methoxyphenyl)amino)-6-methoxy-7-(2-((4-methylpiperazin-1-yl)oxy)ethoxy)quinoline-3-carbonitrile] | 13 nM | 6.24 | 11 nM |  |  |  | 9.71% |  |
